Measured values: patent US9056835B2, “LPA2 receptor-specific benzoic acid derivatives” (University of Tennessee Research Foundation, priority 2012, dated 2015)

Target: GPR87 (Homo sapiens, UniProt Q9BY21)
Experiment: LPA receptor-mediated Ca2+ mobilization assay, GPR87
Type: cell-based
Settings: for EC50: agonist, Ca2+ mobilization; for inhibition of GPR87 Ca2+ response: 10 μM, ~EC75 LPA 18:1; for GPR87 Imax (%): inhibition by 10 μM compound of ~EC75 LPA 18:1 Ca2+ response
Method: Similarity searches were performed separately using each fingerprint to quantitate similarity. Hits meeting the 80% similarity threshold from each search were ranked based on the Tanimoto coefficient measure of similarity to a target molecule NSC12404, and the top 75 unique hits from each fingerprint search were selected for further analysis. The 225 compounds selected for further analysis were clustered based on Tanimoto coefficients calculated using Molecular ACCess System-key fingerprints (MACCS keys) and evaluated using the diversity subset function implemented in MOE. This selected a diverse subset of 27 compounds for biological evaluation by choosing the middle compounds in each cluster. These 27 compounds were tested in Ca^2+ mobilization assays at a concentration of 10 μM using stable cell lines individually expressing LPA2 and also in vector-transfected control cells. Hits activating LPA2 were further tested using cells expressing the other established and putative LPA GPCRs. Experimental testing of the selected compounds identified the three new selective LPA2 agonists: GRI977143, H2L5547924, and H2L5828102. […] They arbitrarily selected GRI977143 for further characterization in cell-based assays.
J Biol Chem (2009) 284(25): 17304-17319). […] The cells were loaded with Fura-2-acetoxymethyl esther (Fura-2/AM) in Krebs buffer containing 0.01% pluronic acid for 30 min and rinsed with Krebs buffer before measuring Ca^2+ mobilization. The ratio of peak emissions at 510 nm after 2 min of ligand addition was determined for excitation wavelengths of 340 nm/380 nm. All samples were run in quadruplicate. […] The half maximally effective concentration (EC50), and inhibitory constant (Ki) values were calculated by fitting a sigmoid function to dose-response data points using KaleidaGraph software (version 4.1, Synergy Software; […]).
Mouse embryonic fibroblast (MEF) cells were isolated from E13.5 LPA1&2 double knockout (DKO) embryos. MEFs were transduced with empty vector or LPA2-containing lentiviruses and selected with 1.5 μg/ml puromycin. Cells were maintained in Dulbecco's modified Eagle medium (DMEM) supplemented with 10% (V/V) fetal bovine serum (FBS), 2 mM L-glutamine, 100 U/mL penicillin, and 100 μg/mL streptomycin. Serum-free medium contained 0.1% (W/V) BSA in DMEM. The rat intestinal epithelial cell line 6 (IEC-6) was obtained from the American Type Culture Collection (Rockville, Md.) at passage 13; passages 16-21 were used in all experiments. IEC-6 cells were maintained in a humidified 37° C. incubator in an atmosphere of 90% air and 10% CO2. Growth medium consisted of DMEM supplemented with 5% heat inactivated FBS, 10 μg/mL insulin, and 50 μg/mL gentamycin. The composition of the serum-starvation medium was the same as that of the full growth medium except that it contained no FBS. The McArdle rat hepatoma cell line (RH7777) stably expressing LPA2 receptors was a gift from Dr. Fumikazu Okajima (Gunma University, Maebashi, Japan). RH7777 cells stably expressing LPA1 or LPA3 receptors were generated in-house and had been characterized earlier. Wild type and LPA receptor (LPAR) stably transfected RH7777 cells were grown in DMEM supplemented with 10% FBS and 2 mM L-glutamine in the presence of 250 μg/ml G418. Chinese hamster ovary (CHO) cells stably expressing either vector or LPA4 receptor were a kind gift from Dr. Takao Shimizu (Tokyo University; Tokyo, Japan). Cells were cultured in Ham's F12 medium containing 10% FBS, 2 mM L-glutamine, and 350 μg/ml G418. Rat neuroblastoma cells (B103) were transduced with the lentivirus harboring wild type of FLAG-LPA5 and selected with puromycin to establish the stable cell lines. The stable cells were maintained in DMEM supplemented with 10% FBS and 0.4 μg/ml puromycin. GPR87- and P2Y10-expressing CHO cells and vector-transfected control cells were a gift from Dr. Norihisha Fujita (Ritsumeikan University; Shiga, Japan). […]

Chain of GPR87 (Q9BY21 whole entry): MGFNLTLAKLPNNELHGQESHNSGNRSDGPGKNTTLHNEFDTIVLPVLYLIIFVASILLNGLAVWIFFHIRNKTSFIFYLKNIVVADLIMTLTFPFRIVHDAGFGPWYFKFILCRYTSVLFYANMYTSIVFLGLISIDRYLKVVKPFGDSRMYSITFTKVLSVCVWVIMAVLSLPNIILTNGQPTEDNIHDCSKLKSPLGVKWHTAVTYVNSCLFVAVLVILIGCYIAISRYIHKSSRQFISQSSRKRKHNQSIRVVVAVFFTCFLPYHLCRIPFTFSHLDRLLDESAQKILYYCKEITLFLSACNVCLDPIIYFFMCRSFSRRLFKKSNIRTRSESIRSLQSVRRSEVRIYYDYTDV

| Molecule | EC50 [nM] | inhibition of GPR87 Ca2+ response | GPR87 Imax (%) |
| --- | --- | --- | --- |
| CCCCCCCC/C=C\CCCCCCCC(=O)OC[C@@H](O)COP(=O)(O)O [LPA 18:1, Lysophosphatidic acid (18:1)] | 49 |  |  |
| O=C(O)c1cc(Cl)c(Cl)cc1C(=O)Nc1ccc2c(c1)C(=O)c1ccccc1-2 [Compound H2L5547924] |  | partially inhibited | 31 |
| O=C(O)c1ccccc1C(=O)Nc1ccc2c(c1)C(=O)c1ccccc1C2=O [Compound H2L5828102] |  | partially inhibited | 21 |
| octadecenyl thiophosphate [OTP] | 3000 |  |  |
| O=C(O)c1ccccc1C(=O)Nc1ccc2c(c1)C(=O)c1ccccc1-2 [NSC12404] | > 10000 |  |  |
| O=C(O)c1ccccc1SCCCN1C(=O)c2cccc3cccc(c23)C1=O [GRI977143] | > 10000 |  |  |
